Structures can show the parent of a compound that is named as a salt.
Experiments:
xanthine oxidase = xanthine oxidase (Bos taurus, UniProt P80457); assay: Xanthine oxidase assay (lucigenin); format: biochemical
Experimental: Xanthine oxidase activity was measured by lucigenin. Reaction mixtures contained 0.1 mU xanthine oxidase, 0.25 mM Xanthine, and 0.4 mM lucigenin with the indicated inhibitor (0–20 μM). Luminescence measured over 30 min at 37 °C with luminometor (DTX800, Beckman coulter).

[1] = Direct ROS (H2O2) scavenging in vitro; conditions: 20 μM compound, 1 mM H2O2
Excerpt: Based on the notion that the differentiation of OCs is mediated by Nox1/2/4-dependent ROS generation, we have performed a high throughput enzyme inhibitor screening assay to identify chemical compounds having Nox1/2/4 inhibitory activity for the development of an anti-osteoporosis agent. Purified Drosophila membranes expressing human Nox1, Nox2, or Nox4 were used to monitor ROS production by determining the oxidation of lucigenin, evident as chemiluminescence, in the absence or presence of chemical compound[18]. A chemical library containing 31,000 compounds was screened to identify Nox inhibitors. […] (Fig. 1B, Supplementary Fig. S2). […] Moreover, we investigated whether Ewha-18278 can directly scavenge ROS in vitro.
Supplementary Figure S3. (A) Ewha-18278 compounds can not directly scavenge superoxide or other reactive species in vitro. ROS (H2O2) measured with lucigenin. Reaction mixtures contained 1 […]
Luminescence measured over 30 min at 37
°C with luminometor (Gloma X luminometor, Turner BioSystem). […]
the phagocytosis of zymosan. […]
incubated with FITC-zymosan particles, and internalized fluorescence was measured by flow cytometry. The data are presented as the MFI of internalized FITC. Data represent mean ± S.D. […]

BMMs = assay: RANKL-induced OC differentiation, TRAP staining; format: cell-based, C57BL/6 mice; conditions: M-CSF 30 ng/ml, RANKL 100 ng/ml, dose-dependent
Experimental: RANKL-induced ROS generation was monitored by confocal microscopic analysis of DCF fluorescence. Data represent three repeated experiments and are shown as mean ± SD (n = 3). […] (D) TRAP^+ MNCs containing more than 3 nuclei were counted. Data represent mean ± S.D., *P < 0.005. Scale bar, 500 μm.
Primary BMMs were obtained from 6- to 8-week-old male C57BL/6 mice (The Jackson Laboratory, Bar Harbor, […], USA) as described previously. In brief, bone marrow cells were cultured in α-MEM (HyClone, Logan, UT, USA) containing 10% fetal bovine serum (FBS) (HyClone, Logan UT, USA) with 30 ng/ml macrophage-colony stimulating facor (M-CSF) for 3 days to obtain OC precursor cells of monocyte/macrophage lineage. For OC differentiation, the precursor cells were treated with 100 ng/ml RANKL in the presence of M-CSF with or without for 3–4 days. OCs were fixed with 4% paraformaldehyde and stained for tartrate-resistant acid phosphatase (TRAP) using a leukocyte acid phosphatase cytochemistry kit (Sigma-Aldrich, St. Louis, MO, USA) according to the manufacturer’s instructions. TRAP-positive multinucleated cells (TRAP^+ MNCs) containing three or more nuclei were counted as OC-like cells.

Mature OCs = assay: Bone resorption assay on dentine discs; format: cell-based, C57BL/6 mice; conditions: 10 μM, 24 hours
Experimental: The cells were removed from the dentine discs and the dentine discs were stained with hematoxylin. Pit areas were photographed under a light microscope and analyzed using Image-Pro Plus version 4.5 software (Media-Cybernetics, Rockville, MD, USA). […]
Scale bar, 500 μm. (C,D) Mature OCs were generated with M-CSF and RANKL, cells were seeded onto dentine discs and further cultured with […]
Cells were stained with hematoxylin for visualization of pit formation (C). The area of resorption pits were measured with Image-Pro Plus 4.5 (D). Scale bar, 500
μm. Data represent mean ± S.D., n.s., not significant. […]

[2] = test system: OVX-induced osteoporotic ddY mice; assay: Femur weights (wet, dry, ash) in OVX mice; format: in vivo
Experimental: The right sides of femur and tibia were weighed and then dried at 120 °C for 8 hours. The dried bones were carbonized at 800 °C for 6 hours in a furnace (Daihan Scientific, Korea) to detect ash absolute weights, after measurement of BMD and failure load. To reduce the individual body weight differences, the relative weight (%) was calculated using body weight at sacrifice and absolute weight as [Relative bone weights = (Absolute bone weight/Body weight at sacrifice) ×100]. In addition, ashed bones were ground and dissolved in nitric acid. In diluted solution, Ca and P contents were calculated (mg/g bone) using an orthocresolphthalein complex and enzyme methods, respectively. The Ca/P ratio (%) was calculated as (Tibia Ca contents/Tibia P contents) ×100.

[3] = test system: OVX-induced osteoporotic ddY mice; assay: Number of OBs in cortical bone lining of OVX mice (H&E); conditions: mouse, in vivo
Experimental: Sham OVX Risedronate 20 mg/kg 10 mg/kg 5 mg/kg 2.5 mg/kg20.0mg/kg 10.0mg/kg 5.0mg/kg 2.5mg/kg […]
Supplementary Figure S8. […] CB number was […]
counted in osteoblastic lining in cortical bone with H&E staining. a p<0.005 and b p<0.005 as compared with OVX and Risendronate, respectively, c p<0.005 and d p<0.005 as compared with 20

[4] = test system: OVX-induced osteoporotic ddY mice; assay: OVX-induced osteoporosis in ddY mice, overall anti-osteoporotic effect; format: in vivo
Experimental: Risedronate sodium (2.5 mg/kg) served as a reference compound. […] Histopathology and histomorphometrical analyses including trabecular bone volume (BV/TV), trabecular bone number (Tb.N), trabecular bone length (Tb.Le), trabecular bone thickness (Tb.Th), cortical bone thickness (Ct.Th), OC number (N.Oc), bone mineral density (BMD) and bone strength (failure load, FL) were conducted.
The study was reviewed and approved by the Institutional Animal Care and Use Committee (IACUC) of Center for Laboratory Animal Sciences, Ewha Industry-University Cooperation Foundation, Ewha Womans University. Experimental methods were carried out in accordance with the approved ethic guidelines in Ewha Industry-University Cooperation Foundation, Ewha Womans University. Beginning 4 weeks after OVX, the female ddY mice received 2.5, 5, 10, or 20 mg/kg of #18–278, 2.5 mg/kg of risedronate, or vehicle once daily for 28 days. The Changes in body weight, bone weight, bone mineral density (BMD), failure load (FL), bone calcium (Ca), inorganic phosphorus (P) contents, histology and histomorphology were monitored. Serum osteocalcin and bone specific alkaline phosphatase (bALP) were monitored in mice receiving Ewha-18278.

[5] = 2.5 mg/kg oral once daily 28 days
[6] = 5 mg/kg oral once daily 28 days
[7] = 10 mg/kg oral once daily 28 days
[8] = 20 mg/kg oral once daily 28 days

xanthine oxidase, sequence (P80457 2-1332): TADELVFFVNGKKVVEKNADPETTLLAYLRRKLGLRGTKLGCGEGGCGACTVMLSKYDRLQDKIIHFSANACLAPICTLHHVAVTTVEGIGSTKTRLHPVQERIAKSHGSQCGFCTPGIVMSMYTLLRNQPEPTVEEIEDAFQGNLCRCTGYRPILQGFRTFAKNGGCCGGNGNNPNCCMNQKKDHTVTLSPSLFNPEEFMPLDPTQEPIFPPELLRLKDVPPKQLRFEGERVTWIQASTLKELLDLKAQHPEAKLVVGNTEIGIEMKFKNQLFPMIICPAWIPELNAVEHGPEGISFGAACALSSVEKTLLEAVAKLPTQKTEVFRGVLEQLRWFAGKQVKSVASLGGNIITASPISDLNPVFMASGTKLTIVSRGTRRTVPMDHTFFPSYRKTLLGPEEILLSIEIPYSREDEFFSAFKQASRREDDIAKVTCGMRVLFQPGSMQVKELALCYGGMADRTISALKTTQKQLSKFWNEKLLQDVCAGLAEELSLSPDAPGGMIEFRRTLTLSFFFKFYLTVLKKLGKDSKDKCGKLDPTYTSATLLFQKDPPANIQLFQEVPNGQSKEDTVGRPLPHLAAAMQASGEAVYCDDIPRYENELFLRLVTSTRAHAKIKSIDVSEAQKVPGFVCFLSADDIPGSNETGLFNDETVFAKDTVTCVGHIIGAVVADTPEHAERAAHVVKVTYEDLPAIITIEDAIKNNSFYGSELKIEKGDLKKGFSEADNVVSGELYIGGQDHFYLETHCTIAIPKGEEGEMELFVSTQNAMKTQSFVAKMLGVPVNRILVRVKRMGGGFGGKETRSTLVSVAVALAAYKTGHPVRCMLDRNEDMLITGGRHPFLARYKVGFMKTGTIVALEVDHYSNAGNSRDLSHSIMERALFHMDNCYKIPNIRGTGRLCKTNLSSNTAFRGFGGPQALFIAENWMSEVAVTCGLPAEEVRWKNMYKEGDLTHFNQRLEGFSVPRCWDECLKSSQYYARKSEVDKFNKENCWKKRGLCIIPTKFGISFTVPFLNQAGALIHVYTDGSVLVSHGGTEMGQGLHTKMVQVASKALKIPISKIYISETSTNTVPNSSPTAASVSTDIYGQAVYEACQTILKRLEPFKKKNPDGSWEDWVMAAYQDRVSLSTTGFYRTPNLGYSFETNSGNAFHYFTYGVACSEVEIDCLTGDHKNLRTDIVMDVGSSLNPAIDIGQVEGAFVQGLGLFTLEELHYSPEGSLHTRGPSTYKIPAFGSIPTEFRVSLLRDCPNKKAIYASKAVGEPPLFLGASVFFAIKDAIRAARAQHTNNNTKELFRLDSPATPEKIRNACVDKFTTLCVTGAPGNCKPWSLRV

CCCc1c(-c2ccccc2)nn(-c2ccccn2)c1O [Ewha-18278, 3-phenyl-1-(pyridin-2-yl)-4-propyl-1H-5-hydroxypyrazole HCl]
inhibitory activity on xanthine oxidase (xanthine oxidase): no inhibitory activities
change in hydrogen peroxide concentration (ROS scavenging) [1]: had no effect
formation of TRAP-positive OCs with >3 nuclei (BMMs): inhibited the formation of TRAP-positive OCs
bone resorption activity of OCs (Mature OCs): did not affect
Femur absolute weights, Ash [2, 5]: 0.030 g
Femur absolute weights, Dry [2, 5]: 0.065 g
Femur absolute weights, Wet [2, 5]: 0.097 g
Femur absolute weights, Ash [2, 6]: 0.037 g
Femur absolute weights, Dry [2, 6]: 0.065 g
Femur absolute weights, Wet [2, 6]: 0.093 g
Femur absolute weights, Ash [2, 7]: 0.038 g
Femur absolute weights, Dry [2, 7]: 0.067 g
Femur absolute weights, Wet [2, 7]: 0.096 g
Femur absolute weights, Ash [2, 8]: 0.038 g
Femur absolute weights, Dry [2, 8]: 0.067 g
Femur absolute weights, Wet [2, 8]: 0.096 g
number of OBs in tibia and femur compared to OVX control mice [3]: increased
anti-osteoporotic effects ([4]; 2.5 mg/kg): did not produce obvious favorable anti-osteoporotic effects
anti-osteoporotic effects compared to risedronate (2.5 mg/kg/day for 28 days) ([4]; 10 mg/kg/day for 28 days): similar
cortical bone thickness compared to risedronate ([4]; OVX mice): significantly increased cortical bone thickness
number of OCs in the tibia and femur ([4]; compared to control mice): decreased number of OCs
optimal effective dosage ([4]; oral once daily 28 days, OVX mice): 10 mg/kg
